This series in a line: Thermogravimetric analysis (TGA), weight loss on heating. The class given is physicochemical. How it is done: Thermogravimetric analysis (TGA) data for the crystalline form of the compound of formula (V) were collected using a TA Discovery 550 TGA instrument. The TGA instrument was calibrated using a nickel reference standard. Samples of the crystalline form of the compound of formula (V) were placed in open platinum sample pans and heated at a rate of 10° C./minute from about ambient temperature (˜25° C.) to about 315° C.
TGA data were collected using a TA Discovery 550 TGA instrument. The TGA instrument was calibrated using a nickel reference standard. Samples were placed in open platinum sample pans and heated at a rate of 10° C./minute from about ambient temperature (˜25° C.) to about 315° C.

Results on three compounds are retold here after patent US12344578B2, “Salt forms of bempedoic acid and methods for using the same” (Esperion Therapeutics, Inc., priority 2019, dated 2025).

Regarding `CC(C)(CCCCCC(O)CCCCCC(C)(C)C(=O)O)C(=O)O` [8-hydroxy-2,2,14,14-tetramethylpentadecanedioic acid], where the note is “heated at 10° C./minute from ~25° C. to about 315° C.”, the “TGA weight loss prior to decomposition” value is “negligible weight loss”.

In turn, `CC(C)(CCCCCC(O)CCCCCC(C)(C)C(=O)[O-])C(=O)[O-].[Ca+2]` [Crystalline Form B of the calcium salt] showed a TGA weight loss (up to 86.9° C.) of 2.23%.

In the case of `CC(C)(CCCCCC(O)CCCCCC(C)(C)C(=O)[O-])C(=O)[O-].[Ca+2]` [Crystalline Form A of the calcium salt], the TGA weight loss entry (up to 62.8° C.) is “Negligible weight loss”.
